Test results reported in patent US20030166007A1, “Chemical proteomics” (MDS Proteomics Inc., priority 2002, published 2003).
Entries after “also recorded” stand apart in the source; their conditions may differ.

What was measured:
[1] = tested on: intracellular levels of PRPP; details: reversible upon treatment with hypoxanthine; cited from earlier work
Glutathione synthase = target: T1, Glutathione synthase (Homo sapiens, UniProt P48637); experiment: MTX-agarose affinity chromatography of cell lysate, MS identification; assay type: binding; details: HEK 293 lysate
T1 construct: endogenous in cells; host or cells: HEK 293
T1 sequence (P48637 1-474): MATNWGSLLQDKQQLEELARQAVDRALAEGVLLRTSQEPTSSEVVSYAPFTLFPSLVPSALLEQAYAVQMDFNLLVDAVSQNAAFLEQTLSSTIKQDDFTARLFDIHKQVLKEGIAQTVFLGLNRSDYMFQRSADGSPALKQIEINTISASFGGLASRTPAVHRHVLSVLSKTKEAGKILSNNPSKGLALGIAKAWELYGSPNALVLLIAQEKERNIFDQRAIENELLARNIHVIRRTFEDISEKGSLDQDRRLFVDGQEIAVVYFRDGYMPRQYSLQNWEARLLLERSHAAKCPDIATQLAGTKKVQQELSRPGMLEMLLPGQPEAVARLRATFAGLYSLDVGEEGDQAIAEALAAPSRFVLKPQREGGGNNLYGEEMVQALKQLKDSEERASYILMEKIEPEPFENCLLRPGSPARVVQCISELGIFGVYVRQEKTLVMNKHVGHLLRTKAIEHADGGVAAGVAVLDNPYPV
Procedure: (§1) After incubation for 30 minutes at 4° C. with shaking, the lysates were clarified by centrifugation (27,000×g). In some experiments, cells were lysed using 20 strokes of a Dounce® homogenizer in the absence of detergents. […] While optimizing the protocol, however, several experimental variations were tested on cell lysates including concentration by ammonium sulfate precipitation, or removal of nucleic acid with Streptomycin sulfate. In such cases, the protein sample was desalted using a PD 10 protein-desalting column (Pharmacia), which had been pre-equilibrated in the same buffer (10 mM potassium phosphate pH 7.5)
(§2) Affinity Chromatography: The desalted lysate was loaded onto a column of pre-equilibrated MTX-agarose (Sigma, 50 μL bed volume) or sepharose 4B agarose as a negative control. The lysates were allowed to slowly flow through the matrix under gravity flow. […] Retentates from the microcons were then loaded onto SDS-PAGE 4%-15% gradient mini gels (Bio-Rad). […]
(§3) The peptides were then separated by reverse phase chromatography on C18 resin and directly injected into a mass spectrometer using an automated sample-loading device from 96 well plates. […] The spectra generated were analyzed on a custom-built multi-node server platform (RADARS, ProteoMetrics), which uses two database searching programs, Sonar (ProteoMetrics) and Mascot (Matrix Sciences). […]

[2] = tested on: Glycinamideribonucleotide synthase (GARS); experiment: as above; assay type: binding, human; details: HEK 293 lysate; 110 kDa trifunctional protein and separate 50 kDa band
Procedure: as §1, §2, §3

Nudix 5 = target: T2, Nudix 5 (Homo sapiens, UniProt Q9UKK9); experiment: as above; assay type: binding; details: HEK 293 lysate
T2 construct: endogenous in cells; host or cells: HEK 293
Procedure: as §1, §2, §3

[3] = target: T3, Hypoxanthine phosphoribosyltransferase (HPRT) (Homo sapiens, UniProt P00492); experiment: as above; assay type: binding; details: HEK 293 lysate, lane 9
T3 construct: endogenous in cells; host or cells: HEK 293
T3 sequence (P00492 1-218): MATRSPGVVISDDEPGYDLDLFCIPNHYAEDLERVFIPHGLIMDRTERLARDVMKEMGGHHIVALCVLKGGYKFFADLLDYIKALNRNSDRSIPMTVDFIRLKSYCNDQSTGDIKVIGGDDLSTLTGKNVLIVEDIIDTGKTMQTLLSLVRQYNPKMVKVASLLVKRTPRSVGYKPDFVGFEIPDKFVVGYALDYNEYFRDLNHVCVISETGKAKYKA
Procedure: as §1, §2, §3

Deoxycytidine Kinase = target: T4, Deoxycytidine Kinase (Homo sapiens, UniProt P27707); experiment: as above; assay type: binding; details: HEK 293 lysate
T4 construct: endogenous in cells; host or cells: HEK 293
Procedure: as §1, §2, §3

[4] = target: T5, Propionyl CoA carboxylase (Homo sapiens, UniProt P05165+P05166); experiment: as above; assay type: binding; details: HEK 293 lysate
T5 construct: endogenous in cells; host or cells: HEK 293
T5 sequence (P05165 53-728): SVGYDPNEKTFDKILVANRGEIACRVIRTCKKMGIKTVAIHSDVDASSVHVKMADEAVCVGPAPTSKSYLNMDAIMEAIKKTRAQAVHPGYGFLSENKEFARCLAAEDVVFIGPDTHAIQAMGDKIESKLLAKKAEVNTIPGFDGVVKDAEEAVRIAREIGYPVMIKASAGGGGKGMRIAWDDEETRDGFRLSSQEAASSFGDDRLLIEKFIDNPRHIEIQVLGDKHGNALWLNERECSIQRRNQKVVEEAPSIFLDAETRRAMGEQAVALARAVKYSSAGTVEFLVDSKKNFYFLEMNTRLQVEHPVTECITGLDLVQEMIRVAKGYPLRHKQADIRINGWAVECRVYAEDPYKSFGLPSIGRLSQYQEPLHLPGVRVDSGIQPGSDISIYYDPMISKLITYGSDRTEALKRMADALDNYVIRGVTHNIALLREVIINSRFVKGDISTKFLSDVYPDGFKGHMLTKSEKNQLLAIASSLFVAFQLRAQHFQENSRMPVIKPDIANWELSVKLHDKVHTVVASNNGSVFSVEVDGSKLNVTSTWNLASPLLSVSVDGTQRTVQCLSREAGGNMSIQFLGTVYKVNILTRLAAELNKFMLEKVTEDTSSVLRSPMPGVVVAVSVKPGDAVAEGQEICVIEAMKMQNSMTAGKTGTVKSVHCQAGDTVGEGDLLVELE
T5 sequence (P05166 29-539): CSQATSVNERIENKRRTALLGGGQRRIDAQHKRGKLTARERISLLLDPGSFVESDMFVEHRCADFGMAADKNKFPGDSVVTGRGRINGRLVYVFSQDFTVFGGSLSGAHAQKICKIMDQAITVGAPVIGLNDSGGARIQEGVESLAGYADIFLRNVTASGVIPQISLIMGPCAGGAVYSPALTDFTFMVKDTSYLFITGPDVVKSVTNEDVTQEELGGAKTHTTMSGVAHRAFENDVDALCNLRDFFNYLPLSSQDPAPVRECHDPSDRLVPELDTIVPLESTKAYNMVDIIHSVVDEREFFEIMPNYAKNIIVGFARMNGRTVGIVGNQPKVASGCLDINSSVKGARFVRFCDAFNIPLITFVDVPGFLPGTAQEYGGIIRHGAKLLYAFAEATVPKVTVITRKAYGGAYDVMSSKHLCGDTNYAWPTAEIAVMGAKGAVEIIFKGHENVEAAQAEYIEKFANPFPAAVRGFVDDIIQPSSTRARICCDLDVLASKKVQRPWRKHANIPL
Procedure: as §1, §2, §3

[5] = tested on: purine de novo synthesis in leukemia cells; details: on treatment with Methotrexate; cited from earlier work
[6] = target: Amido phosphoribosyltransferase (Homo sapiens, UniProt Q06203); experiment: MTX-agarose affinity chromatography of cell lysate, MS identification; assay type: binding; design: endogenous in cells; host or cells: HEK 293 (also Jurkat, K562, A431); details: lysates from HEK293, Jurkat, K562 and A431
Chain of Amido phosphoribosyltransferase (Q06203 12-517): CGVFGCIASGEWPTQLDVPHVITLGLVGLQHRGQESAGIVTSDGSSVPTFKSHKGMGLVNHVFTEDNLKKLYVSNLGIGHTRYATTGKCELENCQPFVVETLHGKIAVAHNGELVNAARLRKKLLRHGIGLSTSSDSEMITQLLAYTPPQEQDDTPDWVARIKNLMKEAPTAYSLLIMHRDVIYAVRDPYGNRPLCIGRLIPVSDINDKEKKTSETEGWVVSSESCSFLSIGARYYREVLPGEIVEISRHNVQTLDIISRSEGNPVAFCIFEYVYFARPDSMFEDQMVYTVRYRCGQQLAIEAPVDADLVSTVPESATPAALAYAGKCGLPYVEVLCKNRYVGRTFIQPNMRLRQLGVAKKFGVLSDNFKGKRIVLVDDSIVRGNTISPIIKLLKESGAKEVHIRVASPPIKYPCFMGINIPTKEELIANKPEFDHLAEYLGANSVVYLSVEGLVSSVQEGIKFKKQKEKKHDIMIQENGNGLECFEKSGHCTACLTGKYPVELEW
Procedure: as §1, §2, §3

T4 sequence (P27707 whole entry): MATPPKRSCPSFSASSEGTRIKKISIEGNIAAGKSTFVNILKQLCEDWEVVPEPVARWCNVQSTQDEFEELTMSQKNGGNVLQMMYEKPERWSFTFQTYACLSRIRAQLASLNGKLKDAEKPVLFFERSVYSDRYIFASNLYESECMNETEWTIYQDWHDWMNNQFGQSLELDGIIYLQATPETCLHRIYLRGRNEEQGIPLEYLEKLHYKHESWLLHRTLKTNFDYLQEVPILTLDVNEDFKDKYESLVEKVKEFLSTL

Compound: CN(Cc1cnc2nc(N)nc(N)c2n1)c1ccc(C(=O)N[C@@H](CCC(=O)O)C(=O)O)cc1 [Methotrexate]
- effect on levels of PRPP [1]: raising the intracellular levels of PRPP; also recorded: increase on levels of PRPP
- Association with the Methotrexate matrix (Glutathione synthase): consistently found
- Association with the Methotrexate matrix [2]: GARS-derived peptides were isolated
- Association with the Methotrexate matrix (Nudix 5): consistently found; also recorded: direct interactions with the Methotrexate probe
- Protein identified by Mass Spec.; New MTX interactor [3]: identified in the pull down in lane 9
- Protein identified by Mass Spec.; New MTX interactor ([3]; listed as MTX): ✓
- Association with the Methotrexate matrix (Deoxycytidine Kinase): indirect interaction with Methotrexate
- Association with the Methotrexate matrix [4]: pulled down consistently
- accumulation of 5-phosphoribosyl-1-pyrophosphate [5]: 3-4 fold
- de novo purine pathway [5]: completely blocked
- Protein identified by Mass Spec.; New MTX interactor [6]: found to interact with Methotrexate
- Protein identified by Mass Spec.; New MTX interactor ([6]; listed as MTX): ✓
